In test [1] the test system is MIA PaCa-2 (KRAS G12C) cells. Kind of test: Cellular pERK HTRF assay (KRAS_G12C pERK). It counts as cell-based, human. Conditions: Homo sapiens, MIA PaCa-2, 4 hours incubation, read-out: G12C_pERK. A digest of the protocol:
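MIA PaCa-2 cells plated overnight, then exposed to compound for 4 h at 37 °C (G12C compounds). Phospho-ERK1/2 measured in lysates by HTRF (665/620 nm) after overnight antibody incubation; IC50 from percent inhibition versus log concentration.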
For orientation: TR-FRET usually uses a lanthanide donor and a delayed reading to cut background.

For test [2], the target named is KRAS G12C (Homo sapiens, UniProt P01116, G12C). Description: GDP-GTP exchange assay (KRAS_G12C exchange). It counts as biochemical. The following applies: bodipy-GDP loaded KRAS G12C 2.5 nM, SOS1 150 nM, GppNHp; 2 hours pre-incubation, 2 hours reaction; read-out: G12C_exchange. The gist of the method:
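Fluorescence exchange of bodipy-GDP for GppNHp, SOS1-driven, read at 485/520 nm; IC50 from four-parameter variable-slope fit. Both mutants used 2.5 nM final labelled protein and a 2 h compound pre-incubation. G12C reaction had 500 uM GppNHp and 150 nM SOS1 for 2 h; G12D ran 4 h.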

SMILES strings stand for the structures. pIC50: −log10 of the molar value.

KRAS G12C, sequence (P01116 1-188 isoform P01116-2 G12C): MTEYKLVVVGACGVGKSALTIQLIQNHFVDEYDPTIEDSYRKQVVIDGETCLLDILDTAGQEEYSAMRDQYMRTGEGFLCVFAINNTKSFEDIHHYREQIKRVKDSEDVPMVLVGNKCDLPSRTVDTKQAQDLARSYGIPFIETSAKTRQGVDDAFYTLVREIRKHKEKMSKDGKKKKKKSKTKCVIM

With `CC#CC(=O)N1CC[C@H](n2nnc3c(N4CCOCC4=O)nc4c(F)c(-c5cccc(C)c5Cl)c(C)cc4c32)C[C@H]1CC#N` [Example 260, 2-((2S,4S)-1-(but-2-ynoyl)-4-(7-(2-chloro-3-methylphenyl)-6-fluoro-8-methyl-4-(3-oxomorpholino)-1H-[1,2,3]triazolo[4,5-c]quinolin-1-yl)piperidin-2-yl)acetonitrile], the pIC50 in test [1] and in test [2] was at least 7.00 each time.

On to `Cc1cccc(-c2c(C)cc3c(nc(N4CCOCC4=O)c4nnn([C@H]5CCN(C(=O)/C=C/CF)[C@H](CC#N)C5)c43)c2F)c1Cl` [Example 261, 2-((2S,4S)-4-(7-(2-chloro-3-methylphenyl)-6-fluoro-8-methyl-4-(3-oxomorpholino)-1H-[1,2,3]triazolo[4,5-c]quinolin-1-yl)-1-((E)-4-fluorobut-2-enoyl)piperidin-2-yl)acetonitrile], for which the pIC50 in test [1] and in test [2] was at least 7.00 each time.

In the case of `Cc1cccc(-c2c(Cl)cc3c(nc(N4CC(N(C)C)C4)c4ncn([C@H]5CCN(C(=O)/C=C/CN(C)C)[C@H](CC#N)C5)c43)c2F)c1C(F)(F)F` [Example 262, 2-((2S,4S)-4-(8-chloro-4-(3-(dimethylamino)azetidin-1-yl)-6-fluoro-7-(3-methyl-2-(trifluoromethyl)phenyl)-1H-imidazo[4,5-c]quinolin-1-yl)-1-((E)-4-(dimethylamino)but-2-enoyl)piperidin-2-yl)acetonitrile], the pIC50 in test [1] and in test [2] was at least 7.00 each time.

With `CC#CC(=O)N1CC[C@H](n2cnc3c(N4CC(N(C)C)C4)nc4c(F)c(-c5cccc(C)c5C(F)(F)F)c(Cl)cc4c32)C[C@H]1CC#N` [Example 263, 2-((2S,4S)-1-(but-2-ynoyl)-4-(8-chloro-4-(3-(dimethylamino)azetidin-1-yl)-6-fluoro-7-(3-methyl-2-(trifluoromethyl)phenyl)-1H-imidazo[4,5-c]quinolin-1-yl)piperidin-2-yl)acetonitrile], the pIC50 in test [1] and in test [2] was at least 7.00 each time.

Turning to `C=CC(=O)N1CC[C@H](n2cnc3c(N4CC(N(C)C)C4)nc4c(F)c(-c5cccc(C)c5C(F)(F)F)c(Cl)cc4c32)C[C@H]1CC#N` [Example 264, 2-((2S,4S)-1-acryloyl-4-(8-chloro-4-(3-(dimethylamino)azetidin-1-yl)-6-fluoro-7-(3-methyl-2-(trifluoromethyl)phenyl)-1H-imidazo[4,5-c]quinolin-1-yl)piperidin-2-yl)acetonitrile], the pIC50 in test [1] and in test [2] was at least 7.00 each time.

Turning to `C=CC(=O)N1CC[C@H](n2cnc3c(N4CC(N(C)C)C4)nc4c(F)c(-c5cccc6cccc(Cl)c56)c(Cl)cc4c32)C[C@H]1CC#N` [Example 265, 2-((2S,4S)-1-acryloyl-4-(8-chloro-7-(8-chloronaphthalen-1-yl)-4-(3-(dimethylamino)azetidin-1-yl)-6-fluoro-1H-imidazo[4,5-c]quinolin-1-yl)piperidin-2-yl)acetonitrile], the pIC50 in test [1] and in test [2] was at least 7.00 each time.

Take `C=CC(=O)N1CC[C@H](n2cnc3c(N4CC(N(C)C)C4)nc4c(F)c(-c5c(C)c(F)cc6[nH]ncc56)c(Cl)cc4c32)C[C@H]1CC#N` [Example 266a, 2-((2S,4S)-1-acryloyl-4-(8-chloro-4-(3-(dimethylamino)azetidin-1-yl)-6-fluoro-7-(6-fluoro-5-methyl-1H-indazol-4-yl)-1H-imidazo[4,5-c]quinolin-1-yl)piperidin-2-yl)acetonitrile]: the pIC50 in test [1] and in test [2] was at least 7.00 throughout.

`C=CC(=O)N1CC[C@H](n2cnc3c(N4CC(N(C)C)C4)nc4c(F)c(-c5cnc(C)c6ccccc56)c(Cl)cc4c32)C[C@H]1CC#N` [Example 268a, 2-((2S,4S)-1-acryloyl-4-(8-chloro-4-(3-(dimethylamino)azetidin-1-yl)-6-fluoro-7-(1-methylisoquinolin-4-yl)-1H-imidazo[4,5-c]quinolin-1-yl)piperidin-2-yl)acetonitrile]: the pIC50 in test [1] and in test [2] was at least 7.00 in each case.

`C=CC(=O)N1CC[C@H](n2cnc3c(N4CC(N(C)C)C4)nc4c(F)c(-c5c(C)ncc6ccccc56)c(Cl)cc4c32)C[C@H]1CC#N` [Example 269a, 2-((2S,4S)-1-acryloyl-4-(8-chloro-4-(3-(dimethylamino)azetidin-1-yl)-6-fluoro-7-(3-methylisoquinolin-4-yl)-1H-imidazo[4,5-c]quinolin-1-yl)piperidin-2-yl)acetonitrile]: the pIC50 in test [1] and in test [2] was at least 7.00 each time.

On to `C=CC(=O)N1CC[C@H](n2nnc3c(N4CC(N(C)C)C4)nc4c(Cl)c(-c5cccc(Cl)c5C)c(Cl)cc4c32)C[C@H]1CC#N` [Example 273, 2-((2S,4S)-1-acryloyl-4-(6,8-dichloro-7-(3-chloro-2-methylphenyl)-4-(3-(dimethylamino)azetidin-1-yl)-1H-[1,2,3]triazolo[4,5-c]quinolin-1-yl)piperidin-2-yl)acetonitrile], for which the pIC50 in test [1] and in test [2] was at least 7.00 each time.

In the case of `CC#CC(=O)N1CC[C@H](n2nnc3c(N4CC(N(C)C)C4)nc4c(Cl)c(-c5ccc(F)c6cccnc56)c(Cl)cc4c32)C[C@H]1CC#N` [Example 274a, 2-((2S,4S)-1-(but-2-ynoyl)-4-(6,8-dichloro-4-(3-(dimethylamino)azetidin-1-yl)-7-(5-fluoroquinolin-8-yl)-1H-[1,2,3]triazolo[4,5-c]quinolin-1-yl)piperidin-2-yl)acetonitrile], the pIC50 in test [1] and in test [2] was at least 7.00 throughout.

For the compound `CC#CC(=O)N1CC[C@H](n2nnc3c(OC[C@@H]4CCCN4C)nc4c(Cl)c(-c5cccc(Cl)c5Cl)c(Cl)cc4c32)C[C@H]1CC#N` [Example 278, 2-((2S,4S)-1-(but-2-ynoyl)-4-(6,8-dichloro-7-(2,3-dichlorophenyl)-4-(((S)-1-methylpyrrolidin-2-yl)methoxy)-1H-[1,2,3]triazolo[4,5-c]quinolin-1-yl)piperidin-2-yl)acetonitrile], the pIC50 in test [1] and in test [2] was at least 7.00 in each case.

Turning to `C=CC(=O)N1CC[C@H](n2nnc3c(N4CC(N(C)C)C4)nc4c(Cl)c(-c5cccc(Cl)c5Cl)c(Cl)cc4c32)C[C@H]1CC#N` [Example 281, 2-((2S,4S)-1-acryloyl-4-(6,8-dichloro-7-(2,3-dichlorophenyl)-4-(3-(dimethylamino)azetidin-1-yl)-1H-[1,2,3]triazolo[4,5-c]quinolin-1-yl)piperidin-2-yl)acetonitrile], the pIC50 in test [1] and in test [2] was at least 7.00 throughout.

As to `C=CC(=O)N1CC[C@H](n2nnc3c(N4CC(N(C)C)C4)nc4c(Cl)c(-c5cccc(C)c5Cl)c(Cl)cc4c32)C[C@H]1CC#N` [Example 282, 2-((2S,4S)-1-acryloyl-4-(6,8-dichloro-7-(2-chloro-3-methylphenyl)-4-(3-(dimethylamino)azetidin-1-yl)-1H-[1,2,3]triazolo[4,5-c]quinolin-1-yl)piperidin-2-yl)acetonitrile], the pIC50 in test [1] and in test [2] was at least 7.00 each time.

Regarding `C=CC(=O)N1CC[C@H](n2nnc3c(OC[C@@H]4CCCN4C)nc4c(Cl)c(-c5cccc(Cl)c5Cl)c(Cl)cc4c32)C[C@H]1CC#N` [Example 285, 2-((2S,4S)-1-acryloyl-4-(6,8-dichloro-7-(2,3-dichlorophenyl)-4-(((S)-1-methylpyrrolidin-2-yl)methoxy)-1H-[1,2,3]triazolo[4,5-c]quinolin-1-yl)piperidin-2-yl)acetonitrile], the pIC50 in test [1] and in test [2] was at least 7.00 in each case.

The values above are taken from US20210269434A1, “TRICYCLIC COMPOUNDS AS INHIBITORS OF KRAS” (Incyte Corporation, priority 2020, published 2021).
